Experimental data: patent publication US6534632B2, “Sialidase localized in plasma membrane DNA coding for the same” (priority 1997, dated 2003)
Like-named read-outs stand apart in the source and are kept apart here.

Legend:
Assay type in all cases: biochemical
[1] = target: T1, bovine membrane-bound sialidase (Bos taurus, UniProt O97859); experiment: Inhibition, activation and stabilization of purified bovine membrane-bound sialidase; conditions: in words
T1 construct: the sialidase activity was purified by more than 100,000 times from the bovine brain particulate fraction; from tissue; host or cells: bovine brain (particulate/membrane fraction, detergent-solubilized, 10-step chromatographic purification)
T1 sequence (O97859 1-428): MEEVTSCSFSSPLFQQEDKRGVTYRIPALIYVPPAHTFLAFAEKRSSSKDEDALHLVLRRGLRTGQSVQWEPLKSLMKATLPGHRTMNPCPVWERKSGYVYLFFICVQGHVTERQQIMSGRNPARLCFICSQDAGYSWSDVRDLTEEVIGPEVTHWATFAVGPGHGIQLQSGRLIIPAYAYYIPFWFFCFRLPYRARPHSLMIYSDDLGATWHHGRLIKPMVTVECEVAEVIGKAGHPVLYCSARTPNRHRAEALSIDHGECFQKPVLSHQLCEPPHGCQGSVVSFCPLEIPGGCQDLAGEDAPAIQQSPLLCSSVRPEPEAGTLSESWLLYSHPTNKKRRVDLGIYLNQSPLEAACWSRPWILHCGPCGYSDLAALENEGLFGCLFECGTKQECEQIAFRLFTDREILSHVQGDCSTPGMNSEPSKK

[2] = target: T1, bovine membrane-bound sialidase; experiment: as above; conditions: for Inhibition of the sialidase: in words; for Inhibition (%): 100 minus residual activity (%)
Procedure: (§1) A reaction system (0.2 ml) contained 50-100 nmol of sialic acid-bound saccharide substrate, 0.2 mg of bovine serum albumin, […] of sodium acetate buffer (pH 4.6), 0.2 mg of Triton X-100, and an enzyme fraction, and a substrate consisting mainly of bovine brain mixed gangliosides (Sigma, Type II) was used.
(§2) A reaction mixture having the aforementioned composition was incubated at 37° C. for 15-60 minutes, and the reaction was stopped by quick freezing. The released sialic acid was quantitated by the thiobarbituric acid method of Warren (Warren L., J. Biol. Chem. 234, 1971-1975, 1959) at 549 nm and 532 nm. In Steps 1, 2, and 7 explained below, the quantitation was performed by the same method after the reaction product was passed through an AGX-2 ion exchange mini column. The amount of the sialic acid (nmol) released per hour was defined as 1 unit. When a synthetic substrate, 4-methylumbelliferyl N-acetylneuraminic acid (4MU-NeuAc) was used as the sialic acid-bound saccharide substrate, Triton X-100 was excluded from the reaction system, and released 4-methylumbelliferone was quantitated by a fluorospectrophotometer.
The numerical values each represent 100 minus (residual activity (%) in the presence of inhibitor).

[3] = target: T1, bovine membrane-bound sialidase; experiment: Sialidase activity of purified bovine membrane-bound sialidase for various substrates (substrate specificity); conditions: for Hydrolysis activity (%): relative activity, activity for GD3-ganglioside defined as 100, purified enzyme
Procedure: as §1, §2
The results of investigations about the activity of the enzyme of the present invention for various substrates are shown in Table 2. The numerical values represent relative activity when the activity for the GD3-ganglioside is defined to be 100.

| Compound | Substrate specificity: whether the sialidase acts on the substrate [3] | Hydrolysis activity (%) [3] [%] | other results |
| --- | --- | --- | --- |
| O[C@H](CS)[C@H](O)CS (racemic) [dithiothreitol] | – | – | Stabilization of the sialidase [1]: stabilized |
| CC(=O)N[C@H]1[C@H]([C@H](O)[C@H](O)CO)OC(C(=O)O)=C[C@@H]1O [2-deoxy-2,3-dehydro-N-acetylneuraminic acid] | – | – | Stabilization of the sialidase [1]: stabilized; Inhibition of the sialidase [2]: weakly inhibited; Inhibition (%) ([2]; inhibitor 0.2 mM): 45% |
| O=C(O)c1cc[c]([Hg][OH])cc1 [4-Hydroxy mercury benzoate] | – | – | Inhibition of the sialidase [2]: strongly inhibited; Inhibition (%) ([2]; inhibitor 50 μM): 92% |
| [Cl][Cu][Cl] [CuCl2] | – | – | Inhibition (%) ([2]; inhibitor 1 mM): 95% |
| [Cu+2] [Cu^2+] | – | – | Inhibition of the sialidase [2]: strongly inhibited |
| OCC(O)CO [glycerol] | – | – | Stabilization of the sialidase [1]: stabilized |
| GD1a-ganglioside | acts on | 56 | – |
| GM1-ganglioside | does not substantially act on | 1 | – |
| GM3-ganglioside | acts on | 62 | – |
| Triton X-100 | – | – | Sialidase activity in the presence of surface active agent ([2]; 0.1 to 0.2% of Triton X-100): highly active |

Further lines, with some results ahead:

| Substrate specificity: whether the sialidase acts on the substrate [3] | Hydrolysis activity (%) [3] [%] | Compound | other results |
| --- | --- | --- | --- |
| weakly acts on | 25 | CC(=O)N[C@H]1[C@H]([C@H](O)[C@H](O)CO)OC(Oc2ccc3c(C)cc(=O)oc3c2)(C(=O)O)C[C@@H]1O (some centres unmarked) [4-MUNeuAc, 4-methylumbelliferyl N-acetylneuraminic acid] | – |
| did not act on | 11 | CC(=O)N[C@H]1[C@H]([C@H](O)[C@H](O)CO)O[C@@](O[C@H]2[C@@H](O)[C@@H](CO)O[C@@H](O[C@H]3[C@H](O)[C@@H](O)C(O)O[C@@H]3CO)[C@@H]2O)(C(=O)O)C[C@@H]1O (stereo partly drawn) [α2-3 syalyllactose, α2-3 sialyllactose] | Substrate specificity: whether the sialidase acts on the substrate ([3]; listed as α2-3 sialyllactose): weakly acts on |
| does not substantially act on | 2 | Fetuin: glycoprotein substrate | – |
| acts on | 100 | GD3-ganglioside | – |
| does not substantially act on | 3 | GM2-ganglioside | – |
| does not substantially act on | 2 | Orosomucoid: glycoprotein substrate | – |
